Laboratory results: patent publication USRE43135E1, “Method of improving dough and bread quality” (Danisco A/S, priority 2001, dated 2012)

Legend:
[1] = enzyme expressed in a baculovirus system, Matos et al; cited from earlier work
[2] = Model dough, free fatty acid in dough (cowpea LAH); type: biochemical, wheat
Description: (§1) 10 g of flour and 0.020 g sodium chloride were mixed in a 10 g Farinograph mixing bowl for 1 minute either with or without enzymes. Subsequently water (500 Brabender units) was added and mixed for 5 minutes at 30° C. After mixing the dough was placed at 32° C. for 1 hour, and then frozen and freeze dried prior to further analysis.
(§2) 10 g of fully proofed dough was immediately frozen and freeze dried. The freeze-dried dough was milled in a coffee mill and passed through an 800 micron screen. 1.5 g freeze-dried dough was scaled in a 15 ml centrifuge tube with screw top lid. 7.5 ml water saturated butanol (WSB) was added. The centrifuge tube was placed in a boiling water bath for 10 minutes. The tubes were placed in a Rotamix and rotated at 45 rpm for 20 minutes at ambient temperature and then placed in a boiling water bath again for a further 10 minutes prior to being Rotated on the Rotamix for a further 30 minutes at ambient temperature. The tubes were centrifuged at 3500 g for 5 minutes. 5 ml supernatant was transferred into a vial and the WSB was evaporated to dryness under a steam of nitrogen.
The free fatty acids in the extract were analysed as Cu-salts in isooctane measured at 715 nm and quantified according to a calibration curve based on oleic acid (Kwon D. Y. and Rhee J. S. (1986), A simple and rapid Colourimetric Method for
In the first series of dough experiments purified cowpea LAH was tested in 10 g dough in different concentrations in order to test the activity of the enzyme in dough and in order to find a suitable dosage for baking experiments. The activity of the enzyme was measured by analysing the level of free fatty acid in dough.

[3] = Enzyme-catalysed degumming of vegetable oil; type: biochemical; conditions: rapeseed oil degumming; preliminary results
Description: Vegetable oil, in particular rapeseed oil, was treated with LAH isolated from cowpea to effect degumming of the oil. The process used was essentially as per the enzyme-catalysed degumming process of vegetable oil generally taught in Buchold, H. (Fat Sci. Technol. 95 Jahrgang nr. 8, 1993, pp300-305), excepting that LAH was used.

[4] = Minibread dough, HPLC analysis of galactolipids; type: biochemical, wheat
Description: as §2
(§3) Determination of Free Fatty Acids for Lipase Assay, JAOCS 63:89). Determination of Glycolipids and Phospholipids by HPLC.
(§4) The calibration curve for PC was used to calculate the amounts of the glycolipids and phospholipids.

[5] = Minibread dough, GLC analysis of non-polar dough lipids; type: biochemical, wheat
Description: as §2
(§5) Perkin Elmer 8420 Capillary Gas Chromatography equipped with WCOT fused silica column 12.5 m×0.25 mm ID×0.1 μm 5% phenyl-methyl-silicone (CP Sil 8 CB from Crompack). • Carrier: Helium. • Injection: 1.5 μl with split. • Detector: FID. 385° C.
(§6) Sample preparation: 50 mg wheat lipid was dissolved in 12 ml heptane: pyridine 2:1 containing an internal standard heptadecane, 2 mg/ml. 500 μl of the sample was transferred to a crimp vial. 100 μl MSTFA (N-Methyl-N-trimethylsilyltrifluoracetamid) was added and the reaction incubated for 15 minutes at 90° C. Calculation: Response factors for mono-di-triglycerides and free fatty acid were determined from reference mixtures of these components. Based on these response factors the mono-di-triglycerides and free fatty acids in wheat lipids were calculated.

[6] = Model dough, GLC analysis of non-polar lipids (cowpea LAH); type: biochemical, wheat; conditions: Example 1, FIG. 7, compared with activity on polar lipids and free fatty acid formation
Description: as §1, §5, §6
The non-polar lipids were analysed by GLC.

[7] = Assay for enzyme activity with pNP-Caprate; type: biochemical; conditions: desalted/concentrated sample of purification step 5 (used for baking trials)
Description: Preparation of substrate for enzymatic assay: The substrate, pNP-Caprate (C10), was dissolved in ethanol and diluted in 100 mM Na-Phosphate-buffer (pH 6.3) to a final concentration of 0.1 mg,/ml substrate and 30% ethanol respectively, and kept at room temperature.
Assay method: The enzyme assay mixture contained 30 μl sample/blank and 250 μl substrate. The mixture was incubated at 35° C. for 30 minutes (420 nm) whilst simultaneously running an ELISA-reader (420 nm) kinetic program. The Vmax value was used for calculation of enzyme activity (U/ml). Vmax was converted to μmol from a standard curve for solutions of pNP measured under the same conditions as the sample. The enzyme activity is defined as the amount of enzyme which produce 1 μmol of pNP per min. at 35° C.

[8] = Minibread dough, free fatty acid analysis; type: biochemical, wheat
Description: as §2
The free fatty acids in the extract were analysed as Cu-salts in isooctane measured at 715 nm and quantified according to a calibration curve based on oleic acid (Kwon D. Y. and Rhee J. S. (1986), A simple and rapid Colourimetric Method for […]

[9] = Model dough, HPLC analysis of polar lipids in dough (cowpea LAH); type: biochemical, wheat
Description: as §1, §2, §3, §4
Lipids extracted from the dough were further analysed by HPLC in order to study the effect on polar lipids in the dough.

[10] = Withers-Martinez et al; cited from earlier work
[11] = Cowpea LAH 0.0048 Units/kg flour
[12] = Cowpea LAH 0.024 Units/kg flour
[13] = Cowpea LAH % 0.1195, minibread dough
[14] = Cowpea LAH % 0.239, minibread dough
[15] = Cowpea LAH % 0.478, minibread dough
[16] = Cowpea LAH % 0.956, minibread dough
[17] = Test no. 2, Cowpea LAH 0.05 % in dough, fully proofed minibread dough
[18] = Test no. 3, Cowpea LAH 0.15 % in dough, fully proofed minibread dough
[19] = Test no. 3, Cowpea LAH 0.357 Units/kg flour, no DGDG added, minibread dough
[20] = Test no. 4, Cowpea LAH 0.357 Units/kg flour + DGDG 55% pure 0.2 %, minibread dough

43 KDa protein from drought-stressed cowpea: galactolipid acyl hydrolase of Matos et al, expressed in a baculovirus system; amino acid sequence SEQ ID No. 1
activity on triacylglycerol (triglyceride) [1]: no activity | galactolipid acyl hydrolase activity [1]: preferentially galactolipid acyl hydrolase activity | phospholipid activity [1]: some phospholipid activity

Cowpea LAH: lipolytic acyl hydrolase (E.C. 3.1.1.26) isolated from cowpea (Vigna unguiculata) leaves; hydrolyses glycolipid and phospholipid, not triglyceride
Fatty acid in dough [2, 11]: 1.66 ‰ | Fatty acid in dough [2, 12]: 1.78 ‰ | Fatty acid in dough ([2]; Cowpea LAH 0.12 Units/kg flour): 2.13 ‰ | Fatty acid in dough ([2]; Cowpea LAH 0.6 Units/kg flour): 2.55 ‰ | Fatty acid in dough ([2]; Cowpea LAH 3 Units/kg flour): 3.44 ‰ | amounts of polar lipids in the oil [3]: reduce the amounts of polar lipids | triglyceride levels of the oil [3]: not significantly affecting | DGDG [4, 13]: 2.08 ‰ | DGMG [4, 13]: 0.23 ‰ | DGDG [4, 14]: 2.01 ‰ | DGMG [4, 14]: 0.20 ‰ | DGDG [4, 15]: 1.89 ‰ | DGMG [4, 15]: 0.24 ‰ | DGDG [4, 16]: 1.60 ‰ | DGMG [4, 16]: 0.20 ‰ | DGDG [4, 17]: 2.03 ‰ | DGMG [4, 17]: 0.27 ‰ | DGDG [4, 18]: 1.92 ‰ | DGMG [4, 18]: 0.28 ‰ | DGDG [4, 19]: 1.93 ‰ | DGMG [4, 19]: 0.23 ‰ | DGDG [4, 20]: 2.4 ‰ | DGMG [4, 20]: 0.25 ‰ | Diglyceride [5, 13]: 0.96 ‰ | Monoglyceride [5, 13]: 0.40 ‰ | Triglyceride [5, 13]: 5.04 ‰ | Diglyceride [5, 14]: 1.23 ‰ | Monoglyceride [5, 14]: 0.41 ‰ | Triglyceride [5, 14]: 5.21 ‰ | Diglyceride [5, 15]: 0.90 ‰ | Monoglyceride [5, 15]: 0.43 ‰ | Triglyceride [5, 15]: 5.09 ‰ | Diglyceride [5, 16]: 1.01 ‰ | Monoglyceride [5, 16]: 0.41 ‰ | Triglyceride [5, 16]: 5.23 ‰ | Diglyceride [5, 17]: 0.95 ‰ | Monoglyceride [5, 17]: 0.43 ‰ | Triglyceride [5, 17]: 4.98 ‰ | Diglyceride [5, 18]: 0.96 ‰ | Monoglyceride [5, 18]: 0.43 ‰ | Triglyceride [5, 18]: 5.11 ‰ | Triglyceride [5, 19]: not detected | Triglyceride [5, 20]: 5.82 ‰ | activity on triglyceride (GLC analysis) [6]: no activity | Vmax [7]: 5.6 mOD/min. | enzyme activity [7]: 0.010 U/ml | Free fatty acid in dough ([8]; Cowpea LAH 0.1195 Units/kg): 2.72 ‰ | Free fatty acid in dough ([8]; Cowpea LAH 0.239 Units/kg): 2.81 ‰ | Free fatty acid in dough ([8]; Cowpea LAH 0.478 Units/kg): 3.07 ‰ | Free fatty acid in dough ([8]; Cowpea LAH 0.956 Units/kg): 3.28 ‰ | Free fatty acid ([8]; Test no 3, Cowpea LAH 0.357 Units/kg flour, no DGDG): 3.07 ‰ | Free fatty acid ([8]; Test no 4, Cowpea LAH 0.357 Units/kg flour + DGDG 55% pure 0.2 %): 3.00 ‰ | Free fatty acid ([8]; Test no 10, Cowpea LAH 1.07 Units/kg flour, no DGDG): 3.32 ‰ | Free fatty acid ([8]; Test no 11, Cowpea LAH 1.07 Units/kg flour + DGDG 55% pure 0.1 %): 3.42 ‰ | Free fatty acid ([8]; Test no 12, Cowpea LAH 1.07 Units/kg flour + DGDG 55% pure 0.2 %): 3.64 ‰ | Free fatty acid ([8]; Test no 13, Cowpea LAH 1.07 Units/kg flour + DGDG 55% pure 0.4 %): 3.92 ‰ | Free fatty acid ([8]; Test no 15, Cowpea LAH 1.07 Units/kg flour + Soy oil 2 %): 3.35 ‰ | Free fatty acid ([8]; Test no 16, Cowpea LAH 2.14 Units/kg flour + Soy oil 2 %): 3.75 ‰ | Fatty acid in dough ([8]; Test no. 2, Cowpea LAH 0.05 % in dough): 2.75 ‰ | Fatty acid in dough ([8]; Test no. 3, Cowpea LAH 0.15 % in dough): 2.96 ‰ | DGDG [9, 11]: 2.22 ‰ | DGMG [9, 11]: 0.20 ‰ | LPC [9, 11]: 1.50 ‰ | PC [9, 11]: 0.52 ‰ | DGDG [9, 12]: 2.12 ‰ | DGMG [9, 12]: 0.23 ‰ | LPC [9, 12]: 1.51 ‰ | PC [9, 12]: 0.48 ‰ | DGDG ([9]; Cowpea LAH 0.12 Units/kg flour): 1.84 ‰ | DGMG ([9]; Cowpea LAH 0.12 Units/kg flour): 0.26 ‰ | LPC ([9]; Cowpea LAH 0.12 Units/kg flour): 1.37 ‰ | PC ([9]; Cowpea LAH 0.12 Units/kg flour): 0.35 ‰ | DGDG ([9]; Cowpea LAH 0.6 Units/kg flour): 1.08 ‰ | DGMG ([9]; Cowpea LAH 0.6 Units/kg flour): 0.30 ‰ | LPC ([9]; Cowpea LAH 0.6 Units/kg flour): 1.30 ‰ | PC ([9]; Cowpea LAH 0.6 Units/kg flour): 0.29 ‰ | DGDG ([9]; Cowpea LAH 3.0 Units/kg flour): 0.30 ‰ | DGMG ([9]; Cowpea LAH 3.0 Units/kg flour): 0.11 ‰ | LPC ([9]; Cowpea LAH 3.0 Units/kg flour): 1.19 ‰ | PC ([9]; Cowpea LAH 3.0 Units/kg flour): 0.00 ‰

B1: GPLRP2: guinea pig pancreatic lipase-related protein 2 (protein, UniProt P81139 1-434, looked up)
Pancreatic lipase-related …: AEVCYSHLGCFSDEKPWAGTSQRPIKSLPSDPKKINTRFLLYTNENQNSYQLITATDIATIKASNFNLNRKTRFIIHGFTDSGENSWLSDMCKNMFQVEKVNCICVDWKGGSKAQYSQASQNIRVVGAEVAYLVQVLSTSLNYAPENVHIIGHSLGAHTAGEAGKRLNGLVGRITGLDPAEPYFQDTPEEVRLDPSDAKFVDVIHTDISPILPSLGFGMSQKVGHMDFFPNGGKDMPGCKTGISCNHHRSIEYYHSSILNPEGFLGYPCASYDEFQESGCFPCPAKGCPKMGHFADQYPGKTNAVEQTFFLNTGASDNFTRWRYKVTVTLSGEKDPSGNINVALLGKNGNSAQYQVFKGTLKPDASYTNSIDVELNVGTIQKVTFLWKRSGISVSKPKMGASRITVQSGKDGTKYNFCSSDIVQENVEQTLSPC
activity on galactolipids and phospholipids [10]: has activity on galactolipids and phospholipids | activity on triglyceride [10]: reduced activity

B2: HPL: human pancreas lipase (protein, UniProt P16233 17-465, looked up)
Pancreatic triacylglycerol …: KEVCYERLGCFSDDSPWSGITERPLHILPWSPKDVNTRFLLYTNENPNNFQEVAADSSSISGSNFKTNRKTRFIIHGFIDKGEENWLANVCKNLFKVESVNCICVDWKGGSRTGYTQASQNIRIVGAEVAYFVEFLQSAFGYSPSNVHVIGHSLGAHAAGEAGRRTNGTIGRITGLDPAEPCFQGTPELVRLDPSDAKFVDVIHTDGAPIVPNLGFGMSQVVGHLDFFPNGGVEMPGCKKNILSQIVDIDGIWEGTRDFAACNHLRSYKYYTDSIVNPDGFAGFPCASYNVFTANKCFPCPSGGCPQMGHYADRYPGKTNDVGQKFYLDTGDASNFARWRYKVSVTLSGKKVTGHILVSLFGNKGNSKQYEIFKGTLKPDSTHSNEFDSDVDVGDLQMVKFIWYNNVINPTLPRVGASKIIVETNVGKQFNFCSPETVREEVLLTLTPC
activity on triglyceride [10]: only activity on triglyceride
